How the values were obtained:
AR protein = target: T1, AR protein (Homo sapiens, UniProt P10275); test: AR protein degradation in VCaP cells (Western blot); type: cell-based; settings: 8h
T1 construct: AR-positive human prostate cancer cells VCaP (cell source: ATCC); host or cells: VCaP
T1 sequence (P10275 1-920): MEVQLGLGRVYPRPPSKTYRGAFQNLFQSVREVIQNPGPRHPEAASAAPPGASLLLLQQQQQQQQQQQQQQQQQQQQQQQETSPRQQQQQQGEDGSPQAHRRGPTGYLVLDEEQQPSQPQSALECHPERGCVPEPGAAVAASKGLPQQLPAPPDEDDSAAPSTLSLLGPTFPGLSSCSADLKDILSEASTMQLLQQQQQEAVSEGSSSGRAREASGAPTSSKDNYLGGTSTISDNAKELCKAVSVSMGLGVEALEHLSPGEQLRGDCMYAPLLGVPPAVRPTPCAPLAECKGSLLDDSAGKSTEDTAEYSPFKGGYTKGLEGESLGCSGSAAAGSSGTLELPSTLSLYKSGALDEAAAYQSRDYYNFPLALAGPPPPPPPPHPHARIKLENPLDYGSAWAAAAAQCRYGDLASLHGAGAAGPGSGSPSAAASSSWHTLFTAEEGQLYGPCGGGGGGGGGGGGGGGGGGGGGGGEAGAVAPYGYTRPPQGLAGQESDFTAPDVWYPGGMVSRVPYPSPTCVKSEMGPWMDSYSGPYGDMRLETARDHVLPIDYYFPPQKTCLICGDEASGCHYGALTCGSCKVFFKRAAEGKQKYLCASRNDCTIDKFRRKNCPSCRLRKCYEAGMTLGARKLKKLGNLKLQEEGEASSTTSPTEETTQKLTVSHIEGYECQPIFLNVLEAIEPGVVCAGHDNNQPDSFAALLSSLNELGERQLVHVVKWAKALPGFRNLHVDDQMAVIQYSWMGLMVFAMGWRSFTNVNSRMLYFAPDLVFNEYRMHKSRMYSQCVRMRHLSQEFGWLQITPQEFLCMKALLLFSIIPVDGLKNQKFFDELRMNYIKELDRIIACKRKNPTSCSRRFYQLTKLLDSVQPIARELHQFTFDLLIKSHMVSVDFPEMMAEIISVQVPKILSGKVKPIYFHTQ
Protocol: AR-positive human prostate cancer cells VCaP (cell source: ATCC) were cultured in DMEM (GiBco catalog number 11995-065) containing 10% FBS (Hyclone catalog number SH30406.05), and the cells were inoculated in a six-well microplate (Thermo catalog number 140675) at a density of 3 × 10^5 cells/well. After being cultured overnight in a carbon dioxide incubator (ESCO), the prepared compound of the present invention and the positive control sample ARV-766 (energy chemical) solution of different concentrations were added at a volume of 1 µL/well to make the final concentrations of the compound and the positive control sample reach 5nM and 0.5nM, respectively. At the same time, the corresponding solvent control was set and cultured for 8h. After 8h of culture, the culture medium was removed, and the cells were washed with PBS. RIPA lysis buffer containing 1% Protease Inhibitor Cocktail was added. After lysis and centrifugation, a total protein extract was obtained, and the protein concentration in the extract was detected by BCA method. Protein electrophoresis was performed using SDS-PAGE, and then the protein was transferred to a PVDF (Millipore Sigma catalog number PSRP010R5) membrane at a constant voltage of 100V for 60min. The PVDF membrane was placed in a 5% milk powder 1×TBST solution and blocked at room temperature for 1h. The primary antibody solution (Anti-Androgen receptor, Cell Signaling Technology catalog number: 5153S; 1:2000 dilution) was prepared and incubated at 4°C overnight. The primary antibody solution was discarded and the PVDF membrane was washed with 1×TBST for 5 minutes each time, three times. The secondary antibody solution (Thermo catalog number SA5-35571; 1:7500 dilution) was prepared and incubated at room temperature for 1 hour. The secondary antibody solution was discarded and the PVDF membrane was washed with 1×TBST for 5 minutes each time, three times. A dual-color infrared laser imaging system (Licor catalog number Odyssey CLX) was used for Western membrane imaging. The Image Studio software was used to analyze the grayscale of the bands. GAPDH protein bands were also detected for each sample as an internal reference. The AR protein degradation rate of the compound and the positive control sample was calculated based on the grayscale of the protein bands. Among them, "A" means degradation rate ≥ 50%, "B" means 50%> degradation rate ≥ 20%, "C" means 20% degradation rate ≥ 10%, and "D" means degradation rate less than 10%.

LNCAP cell = test: LNCaP cell proliferation inhibition (WST-8); type: cell-based; settings: Homo sapiens, LNCaP FGC cells, 96 hours, read-out: IC50 for inhibiting LNCAP cell proliferation
Protocol: LNCaP FGC cells (ATCC, CLR-1740) were cultured in RPMI 1640 (ATCC, 30-2001) complete medium supplemented with 10% fetal bovine serum (Hyclone, SH30406.05). On the first day of the experiment, LNCaP FGC cells were seeded at a density of 5,000 cells/well in 96-well plates using RPMI 1640 medium supplemented with 10% fetal bovine serum, with 100 µL of cell suspension per well. The cells were cultured overnight in a 37°C, 5% CO2 cell incubator. On the second day, 100 µL of different concentrations of the compound to be tested and the positive control sample ARV-766 (source: Energy Chemical) prepared in culture medium were added to each well. The final concentration of the compound was 9 concentration points of 5-fold serial dilution starting from 10 µM. The wells to which 100 µL of RPMI 1640 culture medium containing 10% fetal bovine serum was added were set as controls. The cells were cultured in a cell culture incubator at 37°C and 5% CO2 for 96 hours. On the sixth day, the 96-well cell culture plate was removed, and 1/10 volume of WST-8 (Beytime, C0040) reagent was added to each well. The absorbance at 450 nm was detected using a microplate reader (TECAN, F50).

Compound	Degradation rate of AR protein in VCAP cells (AR protein; 0.5 nM)	Degradation rate of AR protein in VCAP cells (AR protein; 5 nM)	IC50 (LNCAP cell) [nM]
C[C@H]1CC2(CCN(c3ccc(C(=O)N4CCC(CN5CCN6c7ccc(N8CCC(=O)NC8=O)cc7OCC[C@H]6C5)CC4)cc3)CC2)CN1c1ccc(C#N)c(C(F)(F)F)c1 [A-P-195]	B (50%> degradation rate ≥ 20%)	A (degradation rate ≥ 50%)	100
COc1cc(O[C@H]2C(C)(C)[C@H](NC(=O)c3ccc(N4CCC(F)(CN5CCN6c7ccc(N8CCC(=O)NC8=O)cc7OCC[C@H]6C5)CC4)cc3)C2(C)C)ccc1C#N [A-P-196]	A (degradation rate ≥ 50%)	A (degradation rate ≥ 50%)	240
C[C@H]1CC2(CCN(c3ccc(C(=O)N4CCC(CN5CCC6(COc7cc(N8CCC(=O)NC8=O)ccc76)C(F)(F)C5)CC4)cc3)CC2)CN1c1ccc(C#N)c(Cl)c1 (some centres unmarked) [A-P-233]		B (50%> degradation rate ≥ 20%)	77
C[C@H]1CC2(CCN(c3ccc(C(=O)N4CCC(CN5CCC6(CC5)CN(C)c5ccc(N7CCC(=O)NC7=O)cc5O6)CC4)cc3)CC2)CN1c1ccc(C#N)c(Cl)c1 [A-P-235, (S)-2-chloro-4-(8-(4-(4-((7-(2,4-dioxotetrahydropyrimidin-1(2H)-yl)-4-methyl-3,4-dihydrospiro[benzo[b][1,4]oxazin-2,4'-piperidine]-1'-yl)methyl)piperidine-1-carbonyl)phenyl)-3-methyl-2,8-diazaspiro[4.5]decane-2-yl)benzonitrile]	A (degradation rate ≥ 50%)	A (degradation rate ≥ 50%)	> 50000
COc1cc(O[C@H]2C(C)(C)[C@H](NC(=O)c3ccc(N4CCC(CN5CCN(c6ccc(C(=O)N[C@H]7CCC(=O)NC7=O)c(F)c6)CC5)CC4)cc3)C2(C)C)ccc1C#N [ARV766, reference compound]	A (degradation rate ≥ 50%)	A (degradation rate ≥ 50%)	490

Source: patent EP4806892A1, “CEREBLON E3 UBIQUITIN LIGASE INHIBITOR” (GAN & LEE PHARMACEUTICALS CO., LTD., priority 2023, dated 2025)
